Measured values taken from US20100055065A1, “AGENT FOR INHIBITING PRODUCTION OF HEPATITIS C VIRUS AND ITS USE” (MIYAZAKI PREFECTURAL INDUSTRIAL SUPPORT FOUNDATION, priority 2008, published 2010).
Converted amounts (≈) assume the structure as drawn.

Legend:
HCV replicon = test: HCV replication suppressive activity test (replicon assay, luciferase); type: cell-based, Hepatitis C virus; conditions: for HCV replication suppressive (inhibitory) activity, in words: replicon cell assay
Protocol: The HCV-replicon cell line was established by transducing sub-genomic RNA into human hepatoma Huh-7 cell cytoplasm. The sub-genomic RNA was prepared by replacing the translated region of HCV genome RNA structural proteins with firefly luciferase gene, internal ribosome entry site (IRES) of the encephalomyocarditis virus and neomycin phosphotransferase gene. The cell line obtained was used for assessment of production of HCV replicon RNA. The production quantity of HCV replicon RNA was measured by the luciferase assay method. (Lohmann et al., Science 285, (1999) 110; Sakamoto et al. Nat. Chem. Biol. 1, (2005) 333)
In order to determine replication quantity of HCV-RNA, luciferase genes from firefly were transduced into HCV-RNA as a reporter gene. The gene transduction was carried out according to the method of Krieger et al. (See; Krieger et al. J. virol. 75, (2001) 4614) in such manner that luciferase genes were fused together neomycin-resistant genes beneath the IRES of HCV gene.
With this HCV subgenome, the replication efficiency of HCV could be estimated by measuring luciferase activity in the HCV replicon cells. The HCV replicon cells used were routinely grown in DMEM (Gibco cat. No. 10569-010) supplemented with Glutamax (Invitrogen), 10% fetal bovine serum (FBS), 1% penicillin/streptomycin (Invitrogen) and 500 μg/ml G418 (Invitrogen). The cells were maintained at 37° C. in humidified atmosphere containing 5% CO2. For the HCV replication assay, the replicon cells in DMEM supplemented with Glutamax and 5% FBS were seeded in a 96-well plate so as to fill every well with 5000 cells, and incubated for 24 hours.
The test was carried out in such a way that the HCV replicon cells were cultured for 72 hours after adding test samples in different concentrations. The Quantity of the luciferase activity was determined by the Steady-Glo Luciferase Assay System (Promega) according to the manufacture's instructions and the luminescence was measured by DTX 800 Multimode Detector (Beckman). In this test, the replication inhibitory activity is expressed as a concentration of samples required for inhibiting 50 percents of the replication of HCV replicon cell (IC50). Specific activity is a reciprocal number of IC50 (1/IC50). Total activity is calculated by multiplying the yield weight of the HCV replicon cell by specific activity.

[1] = Cytotoxicity test (Cell Counting Kit-8); type: cell-based, human; conditions: human; HCV replicon cells; Table 1
Protocol: (§1) The cytotoxicity of the samples was measured by Cell Counting Kit-8 (CCK-8; Dojindo Molecular Technologies) according to the manufacture's instructions. Briefly, 10 μl/a well of CCK-8 reagent were added to the HCV replicon cells cultured in a 96-well plate and then incubated at 37° C. for 60 min. The absorbance of each well was measured at 450 nm with a reference wavelength at 650 nm using an Emax Precision microplate reader (Molecular Devices Inc.). Cell viability was calculated as relative index of control cells and effects of samples and was expressed as the concentration of samples required for 50% cytotoxicity of the cells (CC50).

[2] = system: HCV replicon cells (human hepatoma Huh-7); test: Cytotoxicity test (Cell Counting Kit-8); type: cell-based; conditions: Table 1
Protocol: as §1

[3] = HCV replicon cells, 72 hours, Table 1

Row | Compound | IC50 (HCV replicon; Hepatitis C virus, HCV replicon cells, 72 hours, Table 1) | Ratio CC50/IC50 (HCV replicon; Table 1) | CC50 [1] | Replication suppressive activity IC50 (HCV replicon; [3]) | HCV replication suppressive (inhibitory) activity, in words (HCV replicon) | Cytotoxicity CC50 [2]
1 | Oc1cc(O)c2c(c1)O[C@H](c1ccc(O)c(O)c1)[C@H](O)C2 [Epicatechin] | 27.3 µg/mL (≈ 94.1 µM) | 4.2 | 114 µg/mL (≈ 392 µM) | – | – | –
2 | Catechin | – | 6.2 | – | 16.18 µg/mL | no anti-HCV production activity | –
3 | Oc1cc(O)c2c(c1)O[C@H](c1ccc(O)c(O)c1)[C@H](O)[C@H]2c1c(O)cc(O)c2c1O[C@H](c1ccc(O)c(O)c1)[C@H](O)C2 [Procyanidin B2] | – | – | – | >25.0 µg/mL | no anti-HCV production activity | >25.0 µg/mL
4 | O=C(/C=C/c1ccc(O)c(O)c1)O[C@@H]1C[C@](O)(C(=O)O)C[C@@H](O)[C@H]1O [chlorogenic acid] | – | – | – | – | seem not to have the inhibition activity | –
